From patent US6706663B2, “Herbicidal 3-heterocyclic substituted benzisothiazole and benzisoxazole compounds” (Wyeth, priority 2000, dated 2004)

Columns and labels:
[1] = test system: ECHORC (Echinochloa oryzoides); assay: Flooded paddy, postemergence weed control; type: in vivo, Echinochloa oryzoides (Ard.) Fritsch.; conditions: postemergence weeds, rated 3-4 weeks after treatment
Excerpt: (§1) Results of herbicide evaluation are expressed on a rating scale (0-9). The scale is based upon a visual observation of plant stand, vigor, malformation, size, chlorosis and overall plant appearance as compared with a control.
(§2) Plastic containers containing weeds which are 3 to 5 cm tall and rice seedlings at the 1.5 to 2.5 leaf stage are flooded with water. The water is maintained at 1.5 to 3 cm above the soil surface for the duration of the experiment. Test compounds are applied as aqueous/acetone mixtures 50/50 v/v directly into the flood water to provide the equivalent of about 0.0320 to 0.2500 kg/ha of active ingredient. The treated containers are placed on greenhouse benches and cared for in accordance with conventional greenhouse procedures. Three to four weeks after treatment, the test is terminated and each container is examined and herbicidal effect rated according to the rating system provided in Example 87. The compounds evaluated are identified in Example 87 and plant species used are identified in Example 89.

CYPIR (Cyperus iria) [2] = assay: Flooded paddy, preemergence weed control; type: in vivo; conditions: rate 0.1250 kg/ha, rated 3-4 weeks after treatment, 0-9 rating scale
Method in brief: (§3)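 Greenhouse paddy test, preemergence. Seeds planted in the top 0.5 cm of silt loam soil, which remained flooded at 1.5–3 cm depth. Scored 0-9 by visual comparison with control.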

[3] = test system: MOOVA (Monochoria vaginalis); assay: Flooded paddy, postemergence weed control; type: in vivo, Presl.; conditions: postemergence weeds, rated 3-4 weeks after treatment
Excerpt: as §1, §2

[4] = test system: GLXMAW (Soybean, Williams); assay: Preemergence herbicidal evaluation; type: in vivo, Glycine max, (L.) Merr. cv Williams; conditions: rated 4-5 weeks after treatment
CYPIR (Cyperus iria) [5] = assay: Flooded paddy, postemergence weed control; type: in vivo; conditions: postemergence weeds, rated 3-4 weeks after treatment
Excerpt: as §1, §2

[6] = test system: TRZAWR (Wheat, Winter, cv Riband); assay: Postemergence herbicidal evaluation; type: in vivo, Triticum aestivum; conditions: for TRZAWR herbicidal rating: postemergence
Method in brief: (§4)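 Seedlings grown for about two weeks were sprayed postemergence and then kept under standard greenhouse care. Injury was rated visually 4–5 weeks after treatment on a 0–9 scale against untreated controls, and ratings from repeat tests were averaged.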

ZEAMX (Corn, Field) = assay: Preemergence herbicidal evaluation; type: in vivo, Zea mays, L.; conditions: rated 4-5 weeks after treatment
SETVI (Setaria viridis) [7] = assay: Preemergence herbicidal evaluation; type: in vivo, (L.) Beau; conditions: rated 4-5 weeks after treatment
Method in brief: (§5)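 Seeds mixed with potting soil were planted atop about one inch of soil, then sprayed with test compound in aqueous acetone. Cups were kept in the greenhouse and rated visually 4–5 weeks after treatment on a 0–9 scale against untreated control.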

[8] = test system: ECHCG (Echinochloa crus-galli); assay: Preemergence herbicidal evaluation; type: in vivo, (L.) Beau; conditions: rated 4-5 weeks after treatment
Method in brief: as §5

[9] = test system: ECHORC (Echinochloa oryzoides); assay: Flooded paddy, preemergence weed control; type: in vivo, Echinochloa oryzoides (Ard.) Fritsch.; conditions: rated 3-4 weeks after treatment, 0-9 rating scale
Method in brief: as §3

[10] = test system: MOOVA (Monochoria vaginalis); assay: Flooded paddy, preemergence weed control; type: in vivo, Presl.; conditions: rated 3-4 weeks after treatment, 0-9 rating scale
Method in brief: as §3

[11] = test system: SAGPY (Sagittaria pygmaea); assay: Flooded paddy, postemergence weed control; type: in vivo, L.; conditions: postemergence weeds, rated 3-4 weeks after treatment
Excerpt: as §1, §2

[12] = test system: IPOHE (Ipomoea hederacea); assay: Postemergence herbicidal evaluation; type: in vivo, (L.) Jacq.; conditions: for IPOHE herbicidal rating: postemergence
Method in brief: as §4

ORYSAT (Rice, Tebonnet) = assay: Flooded paddy, post-transplant and postemergence rice tolerance; type: in vivo, Oryza sativa, (L.) Tebonnet; conditions: post-transplant rice, rated 3-4 weeks after treatment
Excerpt: as §1, §2

SETVI (Setaria viridis) [13] = assay: Postemergence herbicidal evaluation; type: in vivo, (L.) Beau; conditions: for SETVI herbicidal rating: postemergence
Method in brief: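 ~2-wk seedlings; spray 0.0040–1.000 kg/ha in 50/50 acetone/water + 0.5% TWEEN 20, 40 psi nozzle. Greenhouse hold; visual 0–9 rating vs control at 4–5 wk; multiple tests averaged.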

[14] = test system: CYPSE (Cyperus serotinus); assay: Flooded paddy, postemergence weed control; type: in vivo, Rottb.; conditions: postemergence weeds, rated 3-4 weeks after treatment
Excerpt: as §1, §2

[15] = rate 0.0080 kg/ha, listed as 82
[16] = rate 0.0320 kg/ha, listed as 82

1-methyl-3-[3-(1,3-oxathian-2-yl)-1,2-benzisothiazol-5-yl]-6-(trifluoromethyl)uracil S′,S′-dioxide [Compound 35]
9.0: herbicide rating (0-9) ECHORC ([1]; 0.2500 kg/ha into flood water) | herbicidal rating, CYPIR (CYPIR (Cyperus iria) [2]) | herbicide rating (0-9) MOOVA ([3]; 0.0620 kg/ha into flood water) | herbicide rating (0-9) MOOVA ([3]; 0.1250 kg/ha into flood water) | herbicide rating (0-9) MOOVA ([3]; 0.2500 kg/ha into flood water) | GLXMAW preemergence herbicidal rating ([4]; Rate 0.1250 kg/ha) | GLXMAW preemergence herbicidal rating ([4]; Rate 0.2500 kg/ha) | herbicide rating (0-9) CYPIR (CYPIR (Cyperus iria) [5]; 0.0620 kg/ha into flood water) | herbicide rating (0-9) CYPIR (CYPIR (Cyperus iria) [5]; 0.1250 kg/ha into flood water) | herbicide rating (0-9) CYPIR (CYPIR (Cyperus iria) [5]; 0.2500 kg/ha into flood water) | ZEAMX preemergence herbicidal rating (ZEAMX (Corn, Field); Rate 0.1250 kg/ha) | ZEAMX preemergence herbicidal rating (ZEAMX (Corn, Field); Rate 0.2500 kg/ha) | SETVI preemergence herbicidal rating (SETVI (Setaria viridis) [7]; Rate 0.0620 kg/ha) | SETVI preemergence herbicidal rating (SETVI (Setaria viridis) [7]; Rate 0.1250 kg/ha) | Preemergence herbicidal rating SETVI (SETVI (Setaria viridis) [7]; Rate 0.1250 kg/ha) | SETVI preemergence herbicidal rating (SETVI (Setaria viridis) [7]; Rate 0.2500 kg/ha) | Preemergence herbicidal rating SETVI (SETVI (Setaria viridis) [7]; Rate 0.2500 kg/ha) | ECHCG preemergence herbicidal rating ([8]; Rate 0.1250 kg/ha) | ECHCG preemergence herbicidal rating ([8]; Rate 0.2500 kg/ha) | herbicidal rating, ECHORC [9, 16] | herbicidal rating, ECHORC ([9]; rate 0.1250 kg/ha, listed as 82) | herbicidal rating, MOOVA [10, 16] | herbicidal rating, MOOVA ([10]; rate 0.1250 kg/ha) | IPOHE herbicidal rating ([12]; rate 0.0620 kg/ha) | Postemergence herbicidal rating, IPOHE ([12]; rate 0.0320 kg/ha) | Postemergence herbicidal rating, IPOHE ([12]; rate 0.0620 kg/ha) | Postemergence herbicidal rating, SETVI (SETVI (Setaria viridis) [13]; rate 0.0320 kg/ha) | Postemergence herbicidal rating, SETVI (SETVI (Setaria viridis) [13]; rate 0.0620 kg/ha) | herbicide rating (0-9) CYPSE ([14]; 0.2500 kg/ha into flood water)
0.0: Preemergence herbicidal rating GLXMAW ([4]; Rate 0.0620 kg/ha) | Preemergence herbicidal rating ZEAMX (ZEAMX (Corn, Field); Rate 0.0620 kg/ha) | herbicidal rating, ECHORC ([9]; rate 0.0080 kg/ha) | herbicidal rating, MOOVA ([10]; rate 0.0080 kg/ha) | herbicide rating (0-9) SAGPY ([11]; 0.0620 kg/ha into flood water) | herbicide rating (0-9) SAGPY ([11]; 0.1250 kg/ha into flood water) | herbicide rating (0-9) SAGPY ([11]; 0.2500 kg/ha into flood water) | herbicide rating (0-9) CYPSE ([14]; 0.0620 kg/ha into flood water) | herbicide rating (0-9) CYPSE ([14]; 0.1250 kg/ha into flood water)
3.0: Preemergence herbicidal rating ECHCG ([8]; Rate 0.0620 kg/ha) | herbicide rating (0-9) ORYSAT (rice tolerance) (ORYSAT (Rice, Tebonnet); 0.0620 kg/ha into flood water) | SETVI herbicidal rating (SETVI (Setaria viridis) [13]; rate 0.0320 kg/ha)
5.0: herbicidal rating, MOOVA ([10]; rate 0.0320 kg/ha) | herbicide rating (0-9) ORYSAT (rice tolerance) (ORYSAT (Rice, Tebonnet); 0.2500 kg/ha into flood water)
4.0: herbicide rating (0-9) ECHORC ([1]; 0.0620 kg/ha into flood water) | herbicide rating (0-9) ECHORC ([1]; 0.1250 kg/ha into flood water) | herbicide rating (0-9) ORYSAT (rice tolerance) (ORYSAT (Rice, Tebonnet); 0.1250 kg/ha into flood water) | SETVI herbicidal rating (SETVI (Setaria viridis) [13]; rate 0.0620 kg/ha)
1.5: TRZAWR herbicidal rating ([6]; rate 0.0320 kg/ha) | TRZAWR herbicidal rating ([6]; rate 0.0620 kg/ha)
6.0: Preemergence herbicidal rating ECHCG ([8]; Rate 0.1250 kg/ha)
2.0: Preemergence herbicidal rating GLXMAW ([4]; Rate 0.2500 kg/ha)
8.0: GLXMAW preemergence herbicidal rating ([4]; Rate 0.0620 kg/ha) | Preemergence herbicidal rating SETVI (SETVI (Setaria viridis) [7]; Rate 0.0620 kg/ha) | ECHCG preemergence herbicidal rating ([8]; Rate 0.0620 kg/ha)
1.0: Preemergence herbicidal rating ZEAMX (ZEAMX (Corn, Field); Rate 0.1250 kg/ha)
7.5: Postemergence herbicidal rating, TRZAWR ([6]; rate 0.0620 kg/ha) | Preemergence herbicidal rating ECHCG ([8]; Rate 0.2500 kg/ha) | herbicidal rating, ECHORC ([9]; rate 0.1250 kg/ha)
5.5: ZEAMX preemergence herbicidal rating (ZEAMX (Corn, Field); Rate 0.0620 kg/ha) | herbicidal rating, ECHORC ([9]; rate 0.0320 kg/ha)
7.0: Postemergence herbicidal rating, TRZAWR ([6]; rate 0.0320 kg/ha) | herbicidal rating, ECHORC [9, 15] | IPOHE herbicidal rating ([12]; rate 0.0320 kg/ha)
0.5: Preemergence herbicidal rating GLXMAW ([4]; Rate 0.1250 kg/ha)
2.5: Preemergence herbicidal rating ZEAMX (ZEAMX (Corn, Field); Rate 0.2500 kg/ha)
8.5: herbicidal rating, MOOVA [10, 15]
